The results in this text go back to ChEMBL document CHEMBL3112457, “Inhibition of hypoxia-inducible factor prolyl hydroxylase domain oxygen sensors: tricking the body into mounting orchestrated survival and repair responses” (J Med Chem, 2013).

A value given as a limit tells only on which side of the number the result lay.

The target in assay [1] is T1, Prolyl hydroxylase EGLN3 (Homo sapiens, UniProt Q9H6Z9). In words: Inhibition of PHD3 in human Hep3B cells assessed as stimulation of EPO release after 48 hrs by ELISA. The assay is classed as cell-based, Hep 3B2. For orientation: ELISA stands for enzyme-linked immunosorbent assay.
In assay [2] the target is T2, Egl nine homolog 1 (Homo sapiens, UniProt Q9GZT9). In words: Inhibition of PHD2 (unknown origin) using P564 HIFlalpha as substrate after 1 hr by TR-FRET assay. On the technique in general: TR-FRET usually uses a lanthanide donor and a delayed reading to cut background.
Target sequence in this assay (Q9GZT9 whole entry): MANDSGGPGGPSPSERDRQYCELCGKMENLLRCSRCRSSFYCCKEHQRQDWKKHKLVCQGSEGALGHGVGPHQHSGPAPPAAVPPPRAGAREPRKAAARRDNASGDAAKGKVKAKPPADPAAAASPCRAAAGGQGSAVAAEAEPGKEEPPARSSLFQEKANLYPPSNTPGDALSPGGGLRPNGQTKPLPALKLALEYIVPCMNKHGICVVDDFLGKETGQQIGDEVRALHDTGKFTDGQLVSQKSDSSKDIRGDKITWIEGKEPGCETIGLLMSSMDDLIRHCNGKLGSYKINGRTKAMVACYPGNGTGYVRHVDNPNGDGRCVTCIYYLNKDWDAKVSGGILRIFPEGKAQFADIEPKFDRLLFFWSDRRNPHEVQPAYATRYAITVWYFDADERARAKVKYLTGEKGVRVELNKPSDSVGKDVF
In assay [3] the target is T1, Prolyl hydroxylase EGLN3. In words: Inhibition of full length human recombinant EGLN-3 using DLDLEALAPYIPADDDFQL as substrate after 20 mins by mass spectrophotometric analysis.
The target in assay [4] is T2, Egl nine homolog 1. In words: Inhibition of human recombinant EGLN-1 using DLDLEALAPYIPADDDFQL as substrate after 20 mins by mass spectrophotometric analysis.
Target sequence in this assay (Q9GZT9 whole entry): as above
Assay [5] in a line: Inhibition of prolyl hydroxylase in human Hep3B cells assessed as stimulation of EPO release at 100 uM after 24 hrs by ELISA relative to control. It counts as cell-based, Hep 3B2.
Assay [6] addresses T1, Prolyl hydroxylase EGLN3. In words: Inhibition of 6His-tagged PHD3 (1 to 239) (unknown origin)-mediated Cy5CODD hydroxylation expressed in Escherichia coli preincubated for 3 mins followed by substrate addition measured after 30 mins.
For assay [7], the target named is T2, Egl nine homolog 1. In words: Inhibition of HIF-PH2 (unknown origin) expressed in insect Hi5 cells using [methoxycoumarin]-DLDLEALAPYIPADDDFQL-amide as substrate at 7.4 uM by [14]CO2 capture assay relative to control. Conditions: BTI-TN-5B1-4.
Target sequence in this assay (Q9GZT9 2-426 limits assumed): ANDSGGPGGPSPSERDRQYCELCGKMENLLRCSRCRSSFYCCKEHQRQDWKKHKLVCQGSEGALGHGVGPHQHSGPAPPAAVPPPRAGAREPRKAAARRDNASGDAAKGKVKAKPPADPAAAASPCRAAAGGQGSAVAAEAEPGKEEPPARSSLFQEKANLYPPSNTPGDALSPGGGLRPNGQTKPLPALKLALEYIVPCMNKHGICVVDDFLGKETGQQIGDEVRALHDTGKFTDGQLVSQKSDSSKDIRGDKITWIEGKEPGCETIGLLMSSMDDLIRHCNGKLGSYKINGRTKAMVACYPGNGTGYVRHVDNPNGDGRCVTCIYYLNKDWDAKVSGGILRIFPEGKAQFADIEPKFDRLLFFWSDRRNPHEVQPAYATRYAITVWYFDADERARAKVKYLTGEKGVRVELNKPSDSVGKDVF
Assay [8] is filed under the species Homo sapiens. In words: Inhibition of prolyl hydroxylase (unknown origin) assessed as stimulation of EPO release by cell-based assay.
In assay [9] the target is T2, Egl nine homolog 1. In words: Inhibition of PHD2 (unknown origin).
Target sequence in this assay (Q9GZT9 whole entry): as the sequence (Q9GZT9 whole entry) above
Assay [10] concerns the target T1, Prolyl hydroxylase EGLN3. In words: Inhibition of 6His-tagged PHD3 (1 to 239) (unknown origin)-mediated Cy5CODD hydroxylation expressed in Escherichia coli after 30 mins.
Assay [11] can be described thus: Inhibition of human CPH2 assessed as 2-Oxoglutarate conversion to succinic acid after 1 hr by radiometric HPLC analysis.
A further assay has as its system Hep 3B2. In words: Inhibition of prolyl hydroxylase in human Hep3B cells assessed as stimulation of EPO release at 100 uM after 24 hrs relative to control. It counts as cell-based. Also on record: scale not given: the % may be the effect or the level left.
The target in assay [12] is T2, Egl nine homolog 1. In words: Inhibition of FLAG-tagged full length PHD2 (unknown origin) expressed in Sf9 cells using HIF-1alpha peptide as substrate preincubated for 30 mins followed by substrate addition measured after 2 hrs by HTRF assay in presence of 2-oxoglutarate.
Target sequence in this assay (Q9GZT9 whole entry): as above
Assay [13] concerns Homo sapiens. In words: Reduction in total cholesterol level in chronic kidney disease patient administered for 16 to 24 weeks relative to control. The assay is classed as functional. Also on record: scale not given: the % may be the effect or the level left.
In assay [14] the test system is Homo sapiens. In words: Antianemic activity in chronic kidney disease patient assessed as hemoglobin level administered for 4 weeks. The assay is classed as functional.
In assay [15] the test system is Homo sapiens. In words: Antianemic activity in nondialysis chronic kidney disease patient assessed as increase in hemoglobin level at 60 to 150 mg administered twice/thrice weekly for 16 to 24 weeks. The assay is classed as functional.
Assay [16] deals with Homo sapiens. In words: Antianemic activity in end stage renal disease patient receiving hemodialysis assessed as increase in hemoglobin level at 1.5 to 2 mg/kg, po administered thrice weekly for 6 weeks relative to control. The assay is classed as functional. The note with it: dose mg/kg 1.5-2.
Assay [17] concerns Homo sapiens. In words: Antianemic activity in human assessed as change in hemoglobin level administered thrice weekly for 12 weeks. The assay is classed as functional.
A short description of assay [18]: Inhibition of human CPH1 assessed as 2-Oxoglutarate conversion to succinic acid after 1 hr by radiometric HPLC analysis.

T1 sequence (Q9H6Z9 whole entry): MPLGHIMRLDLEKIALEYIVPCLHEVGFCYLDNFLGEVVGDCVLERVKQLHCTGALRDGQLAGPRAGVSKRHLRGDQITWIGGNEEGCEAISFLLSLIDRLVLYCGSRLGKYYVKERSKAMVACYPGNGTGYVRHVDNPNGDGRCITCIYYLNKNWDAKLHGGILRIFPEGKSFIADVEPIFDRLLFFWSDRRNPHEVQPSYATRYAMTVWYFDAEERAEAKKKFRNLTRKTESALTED

Take `O=C(O)CNC(=O)c1c(O)n2ccccc2nc1=O`: the concentration for a half-maximal effect (EC50) (in general, the concentration at which the effect is half-maximal) on Prolyl hydroxylase EGLN3 [1] was over 10000 nM.
On to `Cn1c(=O)c(C(=O)NCC(=O)O)c(O)c2sccc21`, for which the IC50 (usually the concentration needed to halve the response being measured) against Egl nine homolog 1 [2] worked out at 3 nM.
Consider `O=C(O)CNC(=O)c1ncc(-c2ccc3ccccc3c2)cc1O`, for which the 50% inhibitory concentration (IC50) at Prolyl hydroxylase EGLN3 [3] and on Egl nine homolog 1 [4] was 17 nM each time.
Regarding `O=C(O)CNC(=O)c1c(O)cc(-c2cc(F)cc(Cl)c2)c2ncnn12`, the EC50 in assay [5] is 5900 nM.
The compound `COc1ccc(-n2c(=S)[nH]c3cc(C(=O)NCc4ccc(Cl)cc4)sc3c2=O)nc1OC` yielded a half-maximal inhibitory concentration (IC50) on Prolyl hydroxylase EGLN3 [6] of 1 nM. Moreover, the EC50 at Prolyl hydroxylase EGLN3 [1] came to 1000 nM.
With `O=C(O)CNC(=O)c1c(O)c2cc(-c3ccc(Oc4ccccc4)cc3)ccc2oc1=O`, at Egl nine homolog 1 [7], the inhibition (commonly the drop in the measured response relative to a control, in per cent) is 100%.
For `O=C(O)c1cnn(-c2nc3cc(OC(F)(F)F)c(Cl)cc3[nH]2)c1`, the A50 in the assay filed under Homo sapiens [8] was found to be 50 µM. This compound also displayed an IC50 at Egl nine homolog 1 [9] of 100 nM.
`Cn1c(=O)c(C(=O)NCC(=O)O)c(O)c2ccc(-c3cccnc3)nc21` displayed an IC50 against Egl nine homolog 1 [2] of under 50 nM.
On to `O=C(O)CNC(=O)c1c(O)c2ccc(F)cc2n(Cc2ccccc2Cl)c1=O`, for which half-maximal inhibition on Prolyl hydroxylase EGLN3 [10] (IC50) was put at 20 nM.
`O=C(O)CNC(=O)c1c(O)c(-c2cccnc2)cc2nccnc12` had an IC50 on Prolyl hydroxylase EGLN3 [6] of 1 nM. Moreover, at Prolyl hydroxylase EGLN3 [1], the EC50 was 100 nM.
For the compound `Cn1c(=O)c(C(=O)CCC(=O)O)c(O)c2ccc(Br)cc21`, in assay [11], the IC50 was 13000 nM.
Consider `Cc1ccccc1-c1ccc2nc(-n3cc(C(=O)O)cn3)[nH]c(=O)c2c1`, for which, in the assay on Hep 3B2, the Activity turned out to be 60%.
For `O=C(O)CNC(=O)c1c(O)c2c(n(CC3Cc4ccccc4C3)c1=O)COC2`, on Egl nine homolog 1 [12], the IC50 was under 10 nM.
In the case of `Cc1c(O)c(C(=O)NCC(=O)O)c(=O)n(Cc2ccccc2)c1C`, at Prolyl hydroxylase EGLN3 [1], the EC50 was over 10000 nM.
As to `O=C(O)CNC(=O)c1c2ncn(Cc3ccccc3)c2cc2c1ncn2Cc1ccccc1`, the IC50 on Prolyl hydroxylase EGLN3 [6] was determined as 1 nM.
Regarding `O=C(O)CNC(=O)c1c(O)c2cc(Cl)cc(C#Cc3ccccc3)c2sc1=O`, at Egl nine homolog 1 [7], the inhibition was 99%.
Turning to `Cc1cccc(CN2CCC3(CC2)C(=O)N(c2ccc(-c4ccccc4)cc2)c2ccc(C(=O)O)cc23)n1`, the IC50 at Egl nine homolog 1 [12] was 0.7 nM.
On to `Cc1nc(C(=O)NCC(=O)O)c(O)c2ccc(Oc3ccccc3)cc12` [ROXADUSTAT], for which the Activity was -20% with Homo sapiens [13]; 1 g/dL in the assay on Homo sapiens [14]; 1.4 g/dL with Homo sapiens [15]; 1 g/dL in the assay with Homo sapiens [16]; 2.1 g/dL with Homo sapiens [17].
Turning to `Cn1c(=O)c(C(=O)NCC(=O)O)c(O)c2ccc(Br)cc21`, the IC50 in assay [11] turned out to be 111 nM; in assay [18], 351 nM.
At Prolyl hydroxylase EGLN3 [6], `O=C(O)CNC(=O)c1c(O)c(Br)cc2c1ncn2Cc1ccccc1` had an IC50 of 1 nM.
On to `COc1ccc(-n2c(=O)[nH]c3cc(C(=O)NCc4ccc5c(c4)OCO5)sc3c2=O)nc1OC`, for which, on Prolyl hydroxylase EGLN3 [6], the IC50 is 1 nM. Also, at Prolyl hydroxylase EGLN3 [1], the EC50 was determined as 1000 nM.
